Data: publication PMC7413254 (Nature Communications, 2020)
Read-outs that look alike come from different tables or passages of the source.

Experiments:
[1] = test system: non-expressing oocytes; assay type: cell-based, Xenopus laevis; details: total [3H]CQ transport; for Uptake of [3H]CQ (% non-expressing oocyte control), trans-stimulation: non-expressing oocytes, normalised to the oocyte type control; for Uptake of [3H]CQ (% PfCRTDd2 control), trans-stimulation, non-expressing oocytes: mean ± SEM, SEM
How it was run: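 Oocytes (ten per treatment, ≥4 independent frogs/days) were preloaded by injecting VF-6 in 25 nL ND96 at pH 5.0, 5.5, 6.0 or 7.0, or Na^+-free choline buffer, then uptake run 1.5 h, 27.5 °C, ND96 pH 5.5 by default. Internal concentrations assumed ~400 nL oocyte volume.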

[2] = test system: PfCRT; assay: Potential co-substrates tested for influx of VF-6 via PfCRT into the oocyte; assay type: cell-based, Plasmodium falciparum; design: key: X: Compounds that have been tested as potential co-substrates but are not required for influx of VF-6 via PfCRT into the oocyte
[3] = test system: non-expressing oocytes; assay: cells; assay type: cell-based, Xenopus laevis; details: Xenopus laevis, total [3H]CQ transport; for inhibition at 500 µM: [test solute] = 0.5 mM; for inhibition at 1000 µM: [test solute] = 1 mM; for inhibition at 2000 µM: [test solute] = 2 mM
How it was run: (§1)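 Washed oocytes (ten per treatment) were exposed to label in pH 5.5 ND96 for 1.5 h at 27.5 °C. Buffer was then removed, cells rinsed in ice-cold ND96, lysed in SDS and counted.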

[4] = biological target: T1, PfCRT^3D7 (Plasmodium falciparum, UniProt Q8IBZ9); assay: cell-based; assay type: cell-based
How it was run: (§2)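 Transport measured in Xenopus oocytes expressing the transporters, 1.5 h at 27.5 °C in ND96 pH 5.5 unless noted. For trans-stimulation, VF-6 injected in 25 nL ND96 at pH 5.0–7.0 or Na^+-free (choline) buffer; intracellular levels based on ~400 nL oocyte volume. Ten oocytes per treatment, ≥4 experiments.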

[5] = biological target: T2, PfNT1 (Plasmodium falciparum, UniProt Q8IDM6); assay: cell-based; assay type: cell-based; details: for activity at 5000 µM: total [3H]CQ transport
T2 construct: expressed in transfected cells; host or cells: Xenopus laevis oocytes (stage V-VI), cRNA-injected
How it was run: as §2

[6] = biological target: T3, PfCRT^Dd2 (Plasmodium falciparum, UniProt Q9N623, A220S/I356T/K76T/M74I/N326S/N75E/Q271E/R371I); assay: cell-based; assay type: cell-based; details: […]
How it was run: as §2

[7] = biological target: T4, PfCRT^Ecu1110 (Plasmodium falciparum, UniProt Q9N623, A220S/I356L/K76T/N326D); assay: cell-based; assay type: cell-based; details: […]
How it was run: as §2

[8] = test system: PfCRT; assay: Test of solutes as potential co-substrates for influx of VF-6 via PfCRT into the oocyte; assay type: cell-based, Plasmodium falciparum; design: key: X: Compounds that have been tested as potential co-substrates but are not required for influx of VF-6 via PfCRT into the oocyte; details: X = tested
[9] = biological target: T1, PfCRT^3D7; assay: cell-based; assay type: cell-based; details: total [3H]CQ transport; for inhibition at 500 µM: [test solute] = 0.5 mM; for inhibition at 1000 µM: [test solute] = 1 mM; for inhibition at 2000 µM: [test solute] = 2 mM
How it was run: as §1

[10] = biological target: T3, PfCRT^Dd2; assay: [3H]CQ uptake into Xenopus oocytes, cis-inhibition by unlabelled solute; assay type: cell-based
How it was run: as §1

[11] = biological target: T4, PfCRT^Ecu1110; assay: as above; assay type: cell-based
How it was run: as §1

[12] = Oocyte, mean ± SEM, SEM, read-out: Uptake of [3H]CQ (% PfCRTDd2 control), cis-inhibition, non-expressing oocytes
[13] = non-expressing oocytes, normalised to the oocyte type control, read-out: Uptake of [3H]CQ (% non-expressing oocyte control), cis-inhibition
[14] = PfCRT3D7 oocytes, normalised to the oocyte type control, read-out: Uptake of [3H]CQ (% PfCRT3D7 control), cis-inhibition
[15] = mean ± SEM, SEM, read-out: Uptake of [3H]CQ (% PfCRTDd2 control), cis-inhibition, PfCRT3D7
[16] = read-out: PfCRT-mediated [3H]CQ transport, cis-inhibition (% PfCRTDd2 control)
[17] = read-out: Uptake of [3H]CQ (% PfCRTDd2 control), cis-inhibition, PfCRTDd2, SEM
[18] = read-out: PfCRT-mediated [3H]CQ transport, cis-inhibition (% PfCRTEcu1110 control)
[19] = read-out: Uptake of [3H]CQ (% PfCRTDd2 control), cis-inhibition, PfCRTEcu1110, SEM
[20] = read-out: Uptake of [3H]CQ (% PfCRTEcu1110 control), cis-inhibition
[21] = read-out: [3H]CQ transport (% PfCRTEcu1110 control), cis-inhibition, PfCRTEcu1110, SEM

T3 sequence (Q9N623 whole entry A220S/I356T/K76T/M74I/N326S/N75E/Q271E/R371I): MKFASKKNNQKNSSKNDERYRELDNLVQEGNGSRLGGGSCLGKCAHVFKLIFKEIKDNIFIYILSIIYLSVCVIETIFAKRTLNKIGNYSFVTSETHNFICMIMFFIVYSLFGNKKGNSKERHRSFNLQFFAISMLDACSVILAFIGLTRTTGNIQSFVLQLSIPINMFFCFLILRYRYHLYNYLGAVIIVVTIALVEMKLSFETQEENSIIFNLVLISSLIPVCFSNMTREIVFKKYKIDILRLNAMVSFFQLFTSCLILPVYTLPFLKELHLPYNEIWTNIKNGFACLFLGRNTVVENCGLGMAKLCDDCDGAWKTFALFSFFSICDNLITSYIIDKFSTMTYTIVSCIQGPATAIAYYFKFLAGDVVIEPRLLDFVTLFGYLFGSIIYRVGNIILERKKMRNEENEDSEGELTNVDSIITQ
T2 sequence (Q8IDM6 whole entry): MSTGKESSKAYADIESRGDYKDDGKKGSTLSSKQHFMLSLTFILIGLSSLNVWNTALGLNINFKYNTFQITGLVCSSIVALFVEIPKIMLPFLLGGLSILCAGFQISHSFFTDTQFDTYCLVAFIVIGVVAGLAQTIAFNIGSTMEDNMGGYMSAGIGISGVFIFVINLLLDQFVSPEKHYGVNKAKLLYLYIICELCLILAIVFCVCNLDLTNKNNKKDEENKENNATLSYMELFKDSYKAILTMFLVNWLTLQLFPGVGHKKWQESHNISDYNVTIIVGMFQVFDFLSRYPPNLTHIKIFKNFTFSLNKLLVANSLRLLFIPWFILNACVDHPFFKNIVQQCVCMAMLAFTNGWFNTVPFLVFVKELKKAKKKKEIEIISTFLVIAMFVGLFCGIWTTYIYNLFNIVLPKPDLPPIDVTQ
T4 sequence (Q9N623 whole entry A220S/I356L/K76T/N326D): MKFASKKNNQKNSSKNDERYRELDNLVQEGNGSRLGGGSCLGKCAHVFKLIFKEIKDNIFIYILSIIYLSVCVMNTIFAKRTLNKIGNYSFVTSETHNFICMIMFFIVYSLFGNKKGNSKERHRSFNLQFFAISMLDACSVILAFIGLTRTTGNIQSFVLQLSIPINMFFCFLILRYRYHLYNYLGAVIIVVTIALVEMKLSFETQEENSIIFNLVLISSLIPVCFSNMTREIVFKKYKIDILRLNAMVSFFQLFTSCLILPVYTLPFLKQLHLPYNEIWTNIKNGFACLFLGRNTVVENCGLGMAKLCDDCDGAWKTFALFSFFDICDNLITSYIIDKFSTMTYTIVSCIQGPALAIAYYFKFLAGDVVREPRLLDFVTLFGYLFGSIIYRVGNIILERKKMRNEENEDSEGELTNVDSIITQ
T1 sequence (Q8IBZ9 59-398): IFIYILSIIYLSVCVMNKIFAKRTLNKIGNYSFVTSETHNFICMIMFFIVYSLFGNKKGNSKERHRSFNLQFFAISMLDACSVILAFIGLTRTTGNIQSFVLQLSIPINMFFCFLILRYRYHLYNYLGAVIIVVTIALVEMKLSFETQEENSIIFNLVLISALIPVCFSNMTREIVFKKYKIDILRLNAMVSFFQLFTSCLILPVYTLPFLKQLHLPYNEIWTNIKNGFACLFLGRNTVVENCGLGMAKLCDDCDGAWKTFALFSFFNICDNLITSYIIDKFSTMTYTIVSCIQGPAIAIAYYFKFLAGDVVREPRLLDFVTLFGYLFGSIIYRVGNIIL

## N[C@@H](Cc1c[nH]cn1)C(=O)O [L-histidine]
[1]; [test solute]i = 5 mM
  Uptake of [3H]CQ (% non-expressing oocyte control), trans-stimulation: 99 ± 3.6 % non-expressing oocyte control
[1]; [test solute]i = 45 mM (30 mM for some solutes due to solubility)
  Uptake of [3H]CQ (% non-expressing oocyte control), trans-stimulation: 100 ± 4.8 % non-expressing oocyte control
[1]; [test solute]i = 5 mM (intracellular)
  Uptake of [3H]CQ (% PfCRTDd2 control), trans-stimulation, non-expressing oocytes: 3.0 ± 0.06 % PfCRTDd2 control
[1]; [test solute]i = 45 mM (intracellular; 30 mM for some solutes due to solubility)
  Uptake of [3H]CQ (% PfCRTDd2 control), trans-stimulation, non-expressing oocytes: 2.5 ± 0.01 % PfCRTDd2 control
[2]
  Tested as potential co-substrate but not required for influx of VF-6 via PfCRT into the oocyte: X
[3]; [12]
  inhibition at 500 µM: 2.4 ± 0.06%
  inhibition at 1000 µM: 2.8 ± 0.07%
  inhibition at 2000 µM: 2.6 ± 0.05%
[3]; [13]
  inhibition at 500 µM: 96 ± 4.3%
  inhibition at 1000 µM: 99 ± 3.7%
  inhibition at 2000 µM: 99 ± 4.7%
[4]; PfCRT3D7 oocytes, [test solute]i = 5 mM, total [3H]CQ transport, normalised to the oocyte type control, read-out: Uptake of [3H]CQ (% PfCRT3D7 control), trans-stimulation
  activity at 5000 µM: 97 ± 3.6%
[4]; SEM
  [3H]CQ transport (% PfCRT3D7 control), trans-stimulation, PfCRT3D7: 0.2 ± 0.01 % PfCRT3D7 control
[4]; [test solute]i = 5 mM (intracellular), PfCRT3D7 oocytes, normalised to oocyte type control, read-out: PfCRT-mediated [3H]CQ transport, trans-stimulation (% PfCRT3D7 control)
  activity at 5000 µM: 95 ± 2.9%
[4]; SEM, read-out: Uptake of [3H]CQ (% PfCRTDd2 control), trans-stimulation, PfCRT3D7
  activity at 45000 µM: 3.3 ± 0.02%
[4]; read-out: PfCRT-mediated [3H]CQ transport, trans-stimulation (% PfCRT3D7 control)
  activity at 45000 µM: 97 ± 2.2%
[4]; read-out: Uptake of [3H]CQ (% PfCRT3D7 control), trans-stimulation
  activity at 45000 µM: 99 ± 3.7%
[4]; total [3H]CQ transport, [test solute]i = 5 mM (intracellular), mean ± SEM, SEM, read-out: Uptake of [3H]CQ (% PfCRTDd2 control), trans-stimulation, PfCRT3D7
  activity at 5000 µM: 3.2 ± 0.09%
[5]; PfNT1 oocytes, [test solute]i = 5 mM, normalised to the oocyte type control, read-out: Uptake of [3H]CQ (% PfNT1 control), trans-stimulation
  activity at 5000 µM: 99 ± 3.3%
[5]; SEM, read-out: Uptake of [3H]CQ (% PfCRTDd2 control), trans-stimulation, PfNT1
  activity at 45000 µM: 2.6 ± 0.04%
[5]; read-out: Uptake of [3H]CQ (% PfNT1 control), trans-stimulation
  activity at 45000 µM: 99 ± 4.2%
[5]; [test solute]i = 5 mM (intracellular), mean ± SEM, SEM, read-out: Uptake of [3H]CQ (% PfCRTDd2 control), trans-stimulation, PfNT1
  activity at 5000 µM: 2.2 ± 0.09%
[6]; pH 5.5, read-out: Uptake of [3H]CQ (% PfCRTDd2 control), trans-stimulation, PfCRTDd2, total [3H]CQ transport, [test solute]i = 5 mM (intracellular), mean ± SEM, SEM
  activity at 5000 µM: 101 ± 2.2%
[6]; pH 5.5, read-out: Uptake of [3H]CQ (% PfCRTDd2 control), trans-stimulation, PfCRTDd2 oocytes, [test solute]i = 5 mM, total [3H]CQ transport, normalised to the oocyte type control
  activity at 5000 µM: 101 ± 2.2%
[6]; pH 5.5, read-out: Uptake of [3H]CQ (% PfCRTDd2 control), trans-stimulation, PfCRTDd2 oocytes, [test solute]i = 45 mM (30 mM for some solutes due to solubility), total [3H]CQ transport, normalised to the oocyte type control
  activity at 45000 µM: 97 ± 3.2%
[7]; pH 5.5, read-out: Uptake of [3H]CQ (% PfCRTEcu1110 control), trans-stimulation, PfCRTEcu1110 oocytes, [test solute]i = 5 mM, total [3H]CQ transport, normalised to the oocyte type control
  activity at 5000 µM: 100 ± 3.6%
[7]; pH 5.5, read-out: Uptake of [3H]CQ (% PfCRTEcu1110 control), trans-stimulation, PfCRTEcu1110 oocytes, [test solute]i = 45 mM (30 mM for some solutes due to solubility), total [3H]CQ transport, normalised to the oocyte type control
  activity at 45000 µM: 99 ± 3%
[7]; read-out: Uptake of [3H]CQ (% PfCRTDd2 control), trans-stimulation, PfCRTEcu1110, total [3H]CQ transport, [test solute]i = 5 mM (intracellular), mean ± SEM, SEM
  activity at 5000 µM: 36 ± 1.3%
[7]; read-out: Uptake of [3H]CQ (% PfCRTDd2 control), trans-stimulation, PfCRTEcu1110, total [3H]CQ transport, [test solute]i = 45 mM (intracellular; 30 mM for some solutes due to solubility), mean ± SEM, SEM
  activity at 45000 µM: 35 ± 2.5%
[8]
  Tested as potential co-substrate but not required for influx of VF-6 via PfCRT into the oocyte: X
[9]; [14]
  inhibition at 500 µM: 99 ± 5.2%
  inhibition at 1000 µM: 99 ± 3.6%
  inhibition at 2000 µM: 101 ± 4.7%
[9]; [15]
  inhibition at 500 µM: 3.7 ± 0.02%
  inhibition at 1000 µM: 2.8 ± 0.02%
  inhibition at 2000 µM: 2.8 ± 0.03%
[10]; [16]
  inhibition at 500 µM: 96 ± 3.6%
  inhibition at 1000 µM: 97 ± 4.1%
[10]; [17]
  inhibition at 500 µM: 98 ± 9.7%
  inhibition at 1000 µM: 99 ± 4.2%
  inhibition at 2000 µM: 100 ± 2.2%
[11]; [18]
  inhibition at 500 µM: 95 ± 1.5%
  inhibition at 1000 µM: 94 ± 3.2%
  inhibition at 2000 µM: 98 ± 2.6%
[11]; [19]
  inhibition at 500 µM: 32 ± 1.4%
  inhibition at 1000 µM: 31 ± 2.1%
  inhibition at 2000 µM: 33 ± 1%
[11]; [20]
  inhibition at 500 µM: 97 ± 5.6%
  inhibition at 1000 µM: 96 ± 4.6%
  inhibition at 2000 µM: 100 ± 8.2%
[11]; [21]
  inhibition at 500 µM: 29 ± 0.4%
  inhibition at 1000 µM: 28 ± 0.2%
  inhibition at 2000 µM: 30 ± 1.3%
